Measured values from patent publication US20080249075A1, “C11 Modified Retrosteroids as Progesterone Receptor Modulator Compounds” (Solvay Pharmaceuticals GmbH, priority 2007, published 2008).
Values belong to the compound of their own block, whether it stands above or below them.

Legend:
[1] = test system: T47D human breast carcinoma cells; assay: cells; assay type: cell-based; details: for activation at 0.1 µM / inhibition at 0.1 µM / EC50 / IC50: Homo sapiens, T47D; for activation at 0.1 µM: 48 h, read-out: PS [100 nM] (% stimulation); for inhibition at 0.1 µM: read-out: PI [100 nM] (% inhibition); for EC50: read-out: pEC50 (converted); for IC50: read-out: pIC50 (converted); for PS [100 nM] (% stimulation): agonistic mode, alkaline phosphatase induction (100% = 1 nM Dydrogesterone); for PS [100 nM] (% stimulation) / PI [100 nM] (% inhibition): compound 100 nM; for PI [100 nM] (% inhibition): antagonistic mode, inhibition of alkaline phosphatase induction by 1 nM Dydrogesterone
Method: The progesterone-dependent modulation of alkaline phosphatase expression was examined using T47D human breast carcinoma cells [Keydar et al., 1979]. The assay was performed as previously described by Di Lorenzo et al. (1991) with the modification of using Dydrogesterone as comparative progestin to determine the antagonistic and agonistic activity.
The cell line was purchased from CLS Cell Lines Service (Hildastrasse 21, D-69214 Eppelheim, Germany). In brief, the cells were plated in 96-well plates at 40,000 cells/well using the following growth medium: RPMI 1640 with: 10% FBS, 1 mM Sodium Pyruvat MEM, 10 mM Hepes, 0.01 mg/ml Bovine insulin, and 25 μg/ml Gentamycin. After 24 h of cultivation, the growth medium was replaced with medium containing 2% fetal bovine serum and the test compounds were added to each well to achieve the appropriate compound concentration: For determination of agonistic activity only the test compounds were added; for measurement of antagonistic activity the test compounds and additionally Dydrogesterone as standard progesterone agonist was added to a final concentration of 1 nM. After 48 h of cultivation, the medium was removed and the cells were washed with 200 μl of Dulbecco's phosphate-buffered saline without calcium and magnesium (PBS(−)). Then the cells were fixed with 3.7% formaldehyde in phosphate-buffered saline for 15 min at 22° C. After washing the cells with PBS, 100 μl of a […] (pNPP) solution (pNPP Liquid Substrate System; Sigma) was added to each well and incubated for 2 h at room temperature protected from light. The reaction was stopped with 100 μl 1N NaOH and the absorbance was measured with a spectrophotometer (Victor, Perkin Elmer) at 405 nm. The results are expressed as alkaline phosphatase induction (as 100% with 1 nM Dydrogesterone) or inhibition (against alkaline phosphatase induction by 1 nM Dydrogesterone) at a certain concentration of test compound.
% stimulation=(effect compound−basal)/(effect dydro 1 nM−basal)*100% inhibition of 1 nM Dydro=100*{1-[(effect compound−basal)/(effect dydro 1 nM−basal)]}
For each compound the % inhibition (PI) and % stimulation (PS), respectively, at a compound concentration of 100 nM was determined. For selected compounds, the corresponding values were measured for several different concentrations, and subsequently were plotted against the concentration of the test compound, and used to calculate the IC50 value (for the antagonistic potency; the IC50 value is the concentration (nM), required to reduce the maximal response by 50%) and EC50 values (for the agonistic potency; the EC50 value is the effective concentration (nM) that produced 50% of the maximum response), respectively.

[2] = molecular target: T1, human progesterone receptor (Homo sapiens, UniProt P06401); assay: Progesterone receptor binding assay, human PR (CEREP); details: 3H-R5020 as ligand, MCF7 cells as source of PR; for Ki: read-out: Human PR binding (pKi) (converted)
T1 sequence (P06401 679-933 limits assumed): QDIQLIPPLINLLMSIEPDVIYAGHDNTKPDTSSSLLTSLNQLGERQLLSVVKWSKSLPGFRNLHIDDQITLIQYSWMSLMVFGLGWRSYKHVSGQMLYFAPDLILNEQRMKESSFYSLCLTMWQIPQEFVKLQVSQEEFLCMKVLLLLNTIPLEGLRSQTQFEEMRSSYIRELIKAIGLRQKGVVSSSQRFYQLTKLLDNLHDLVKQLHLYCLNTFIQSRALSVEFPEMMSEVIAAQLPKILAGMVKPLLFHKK
Method: The progesterone receptor (PR) binding assays were performed at CEREP (Celle I'Evescault, France).
The binding to the human progesterone receptor (Assay Cat No: Progesterone receptor-814h) was be measured using 3H-R5020 as ligand and MCF7 cells as the source of progesterone receptor. The assay is performed as described by Eckert & Katzenellenbogen [1982]. The binding to the bovine progesterone receptor (Assay Cat No: Progesterone receptor-814) was measured using 3H-R5020 as ligand and uterus tissue as the source of progesterone receptor. The assay was performed as described by Hurd & Moudgil [1988].
The results of the receptor binding assay are presented as the individual pKi values, which were determined by measuring the binding activity to the human or bovine PR, as indicated, for a concentration range of each compound.

SMILES: CC(=O)[C@H]1CC[C@H]2[C@@H]3C=CC4=CC(=O)CC[C@@]4(C)[C@@H]3[C@@H](OC(=O)Nc3ccc4c(c3)OCO4)C[C@]12C [Compound No. 13, Benzo[1,3]dioxol-5-yl-carbamic acid dydrogesterone-11β-yl ester]
activation at 0.1 µM [1]: 5%
inhibition at 0.1 µM [1]: 73%
EC50 [1]: 398 nM
IC50 [1]: 31.6 nM
Ki [2]: ≥ 631 nM

SMILES: COc1cc(NC(=O)O[C@H]2C[C@]3(C)[C@@H](C(C)=O)CC[C@H]3[C@@H]3C=CC4=CC(=O)CC[C@@]4(C)[C@@H]32)cc(OC)c1OC [Compound No. 24, (3,4,5-Trimethoxy-phenyl)-carbamic acid dydrogesterone-11β-yl ester]
activation at 0.1 µM [1]: 0%
inhibition at 0.1 µM [1]: 88%
IC50 [1]: 50.1 nM
Ki [2]: 200 nM

SMILES: CCO[C@]1(C(C)=O)CC[C@H]2[C@@H]3C=CC4=CC(=O)C5CC5[C@@]4(C)[C@@H]3[C@@H](OC(=O)Nc3cccc(OC)c3)C[C@@]21C (stereo partly shown) [Compound No. 29]
activation at 0.1 µM [1]: 0%
inhibition at 0.1 µM [1]: 87%
IC50 [1]: 5.01 nM
Ki [2]: 398 nM

Ki [2]: 316 nM
SMILES: CC(=O)[C@H]1CC[C@H]2[C@@H]3C=CC4=CC(=O)CC[C@@]4(C)[C@@H]3[C@@H](OC(=O)Nc3cccc(/C=N/O)c3)C[C@]12C [Compound No. 32, [3-(Hydroxyimino-methyl)-phenyl]-carbamic acid dydrogesterone-11-yl ester]

SMILES: CCO[C@]1(C(C)=O)CC[C@H]2[C@@H]3C=CC4=CC(=O)CC[C@@]4(C)[C@@H]3[C@@H](OC(=O)Nc3ccc4c(c3)OCO4)C[C@@]21C [Compound No. 34, Benzo[1,3]-dioxol-5-yl-carbamic acid 17-ethoxy-dydrogesterone-11β-yl este]
activation at 0.1 µM [1]: 95%
inhibition at 0.1 µM [1]: 5%
Ki [2]: 126 nM

SMILES: CC(=O)[C@H]1CC[C@H]2[C@@H]3C=CC4=CC(=O)CC[C@@]4(C)[C@@H]3[C@@H](OC(=O)Nc3ccc4cn[nH]c4c3)C[C@]12C [compound 41, (1H-Indazol-6-yl)-carbamic aciddydrogesterone-11-yl ester]
activation at 0.1 µM [1]: 1%
inhibition at 0.1 µM [1]: 96%
IC50 [1]: 6.31 nM
Ki [2]: 316 nM

SMILES: CC(=O)[C@H]1CC[C@H]2[C@@H]3C=CC4=CC(=O)CC[C@@]4(C)[C@@H]3C(OC(=O)NCc3ccc4c(c3)OCO4)C[C@]12C (stereo partly shown) [compound 42, Benzo[1,3]dioxol-5-ylmethyl-carbamic acid dydrogesterone-11-yl ester]
PS [100 nM] (% stimulation) ([1]; T47D cells): 76.0%
pEC50 ([1]; agonistic potency, T47D cells): 7.0
PI [100 nM] (% inhibition) ([1]; T47D cells): 6.0%
Human PR binding (pKi) [2]: 6.8

Ki [2]: ≥ 631 nM
SMILES: COc1ccccc1N1CCN(C(=O)O[C@H]2C[C@]3(C)[C@@H](C(C)=O)CC[C@H]3[C@@H]3C=CC4=CC(=O)CC[C@@]4(C)[C@@H]32)CC1 [compound 43, 4-(2-Methoxy-phenyl)-piperazine-1-carboxylic aciddydrogesterone-11-yl ester]

SMILES: CC(=O)[C@H]1CC[C@H]2[C@@H]3C=CC4=CC(=O)CC[C@@]4(C)[C@@H]3[C@@H](OC(=O)Nc3cnc4ccccc4c3)C[C@]12C [compound 51, Quinolin-3-yl-carbamic aciddydrogesterone-11-yl ester]
activation at 0.1 µM [1]: 5%
inhibition at 0.1 µM [1]: 59%
IC50 [1]: 100 nM
Ki [2]: 398 nM

SMILES: COc1ccc(CNC(=O)O[C@H]2C[C@]3(C)[C@@H](C(C)=O)CC[C@H]3[C@@H]3C=CC4=CC(=O)CC[C@@]4(C)[C@@H]32)cc1 [compound 55, (4-Methoxy-benzyl)-carbamicacid dydrogesterone-11-yl ester]
activation at 0.1 µM [1]: 143%
inhibition at 0.1 µM [1]: -79%
EC50 [1]: 50.1 nM
Ki [2]: 100 nM

Ki [2]: ≥ 631 nM
SMILES: CC(=O)[C@H]1CC[C@H]2[C@@H]3C=CC4=CC(=O)CC[C@@]4(C)[C@@H]3[C@@H](OC(=O)Nc3cccc(OC(F)(F)F)c3)C[C@]12C [compound 63, (3-Trifluoromethoxy-phenyl)-carbamic acid dydrogesterone-11-yl ester]

Ki [2]: ≥ 631 nM
SMILES: CC(=O)[C@H]1CC[C@H]2[C@@H]3C=CC4=CC(=O)CC[C@@]4(C)[C@@H]3[C@@H](OC(=O)NCc3ccc(S(C)(=O)=O)cc3)C[C@]12C [compound 67, (4-Methanesulfonyl-benzyl)-carbamic acid dydrogesterone-11-yl ester]

Ki [2]: ≥ 631 nM
SMILES: CC(=O)[C@H]1CC[C@H]2[C@@H]3C=CC4=CC(=O)CC[C@@]4(C)[C@@H]3[C@@H](OC(=O)Nc3cccc(C#N)c3)C[C@]12C [compound 71, (3-Cyano-phenyl)-carbamic aciddydrogesterone-11-yl ester]

Ki [2]: ≥ 631 nM
SMILES: CC(=O)[C@H]1CC[C@H]2[C@@H]3C=CC4=CC(=O)CC[C@@]4(C)[C@@H]3[C@@H](OC(=O)Nc3ccc4c(=O)cc(C)oc4c3)C[C@]12C [compound 77, (2-Methyl-4-oxo-4H-chromen-7-yl)-carbamic aciddydrogesterone-11-yl ester]

SMILES: CC(=O)[C@H]1CC[C@H]2[C@@H]3C=CC4=CC(=O)CC[C@@]4(C)[C@@H]3[C@@H](OC(=O)NCc3cccc(F)c3)C[C@]12C [compound 78, (3-Fluoro-benzyl)-carbamic aciddydrogesterone-11-yl ester]
Ki [2]: 398 nM

SMILES: CC(=O)c1cccc(NC(=O)OC2C[C@]3(C)[C@@H](C(C)=O)CC[C@H]3[C@@H]3C=CC4=CC(=O)CC[C@]4(C)[C@@H]23)c1 (stereo partly shown) [compound 81, (3-Acetyl-phenyl)-carbamic aciddydrogesterone-11-yl ester]
PS [100 nM] (% stimulation) ([1]; T47D cells): 1.0%
PI [100 nM] (% inhibition) ([1]; T47D cells): 72.0%
pIC50 ([1]; antagonistic potency against 1 nM Dydrogesterone, T47D cells): 7.3
Human PR binding (pKi) [2]: 6.6

SMILES: CC(=O)Nc1ccc(NC(=O)OC2C[C@]3(C)[C@@H](C(C)=O)CC[C@H]3[C@@H]3C=CC4=CC(=O)CC[C@@]4(C)[C@H]23)cc1 (stereo partly shown) [compound 82, (4-Acetylamino-phenyl)-carbamicacid dydrogesterone-11-yl ester]
PS [100 nM] (% stimulation) ([1]; T47D cells): 0.0%
PI [100 nM] (% inhibition) ([1]; T47D cells): 40.0%
Human PR binding (pKi) [2]: 6.6

Ki [2]: 501 nM
SMILES: CC(=O)[C@H]1CC[C@H]2[C@@H]3C=CC4=CC(=O)CC[C@@]4(C)[C@@H]3[C@@H](OC(=O)Nc3ccc(F)c(C#N)c3)C[C@]12C [compound 85, (3-Cyano-4-fluoro-phenyl)-carbamic acid dydrogesterone-11-yl ester]

SMILES: CC(=O)[C@H]1CC[C@H]2[C@@H]3C=CC4=CC(=O)CC[C@@]4(C)[C@@H]3[C@@H](OC(=O)Nc3ccc4[nH]ccc4c3)C[C@]12C [compound 91, (1H-Indol-5-yl)-carbamic aciddydrogesterone-11-yl ester]
activation at 0.1 µM [1]: 1%
inhibition at 0.1 µM [1]: 58%
IC50 [1]: 100 nM
Ki [2]: ≥ 631 nM

SMILES: CSc1cccc(NC(=O)O[C@H]2C[C@]3(C)[C@@H](C(C)=O)CC[C@H]3[C@@H]3C=CC4=CC(=O)CC[C@@]4(C)[C@@H]32)c1 [compound 92, (3-Methylsulfanyl-phenyl)-carbamic acid dydrogesterone-11-yl ester]
activation at 0.1 µM [1]: 1%
inhibition at 0.1 µM [1]: 55%
IC50 [1]: 100 nM
Ki [2]: ≥ 631 nM
